Source: ChEMBL document CHEMBL2016493, “Design, synthesis, synergistic antimicrobial activity and cytotoxicity of 4-aryl substituted 3,4-dihydropyrimidinones of curcumin” (Bioorg Med Chem Lett, 2012)
The source made the active and inactive calls. The calls are words filed in the database; no cut-off is given here.

Columns and labels:
[1] = test system: Aspergillus niger; assay: Antifungal activity against Aspergillus niger MTCC 1108 at 160 uM/ml after 48 hrs by paper disc diffusion method; assay type: functional
[2] = test system: HCT-116
[3] = test system: Curvularia lunata; assay: Antifungal activity against Curvularia lunata MTCC 581 at 160 uM/ml after 48 hrs by paper disc diffusion method; assay type: functional; conditions: MTCC 581, 48 h, read-out: IZ
[4] = test system: Pseudomonas aeruginosa; assay: Antibacterial activity against Pseudomonas aeruginosa ATCC 15499 at 20 uM/ml after 24 hrs by kirby-bauer method; assay type: functional
[5] = test system: Salmonella typhimurium; assay: Antibacterial activity against Salmonella typhimurium ATCC 23564 at 160 uM/ml after 24 hrs by kirby-bauer method; assay type: functional, Salmonella enterica subsp. enterica serovar Typhimurium; conditions: Salmonella enterica, ATCC 23564, 24 h; read-out: IZ
[6] = test system: Aspergillus flavus; assay: Antifungal activity against Aspergillus flavus MTCC 1021 at 160 uM/ml after 48 hrs by paper disc diffusion method; assay type: functional
[7] = test system: Staphylococcus aureus; assay: Antibacterial activity against Staphylococcus aureus ATCC 11632 at 160 uM/ml after 24 hrs by kirby-bauer method; assay type: functional
[8] = test system: Trichoderma viride; assay: Antifungal activity against Trichoderma viride MTCC 1107 at 80 uM/ml after 48 hrs by paper disc diffusion method; assay type: functional; conditions: for zone of inhibition at 80 µM: MTCC 1107, 48 h, read-out: IZ
[9] = test system: Aspergillus niger; assay: Antifungal activity against Aspergillus niger MTCC 1108 after 48 hrs by poison food method; assay type: functional
[10] = test system: Trichoderma viride; assay: Antifungal activity against Trichoderma viride MTCC 1107 at 40 uM/ml after 48 hrs by paper disc diffusion method; assay type: functional; conditions: for zone of inhibition: MTCC 1107, 48 h, read-out: IZ
[11] = test system: Curvularia lunata; assay: Antifungal activity against Curvularia lunata MTCC 581 at 40 uM/ml after 48 hrs by paper disc diffusion method; assay type: functional; conditions: for zone of inhibition at 40 µM: MTCC 581, 48 h, read-out: IZ
[12] = test system: Burkholderia pseudomallei; assay: Antibacterial activity against Burkholderia pseudomallei NTCC 10274 at 20 uM/ml after 24 hrs by kirby-bauer method; assay type: functional
[13] = test system: Escherichia coli; assay: Antibacterial activity against Escherichia coli ATCC 35218 at 40 uM/ml after 24 hrs by kirby-bauer method; assay type: functional
[14] = test system: Curvularia lunata; assay: Antifungal activity against Curvularia lunata MTCC 581 at 80 uM/ml after 48 hrs by paper disc diffusion method; assay type: functional; conditions: MTCC 581, 48 h, read-out: IZ
[15] = test system: Burkholderia pseudomallei; assay: Antibacterial activity against Burkholderia pseudomallei NTCC 10274 at 40 uM/ml after 24 hrs by kirby-bauer method; assay type: functional
[16] = test system: HepG2
[17] = test system: Trichoderma viride; assay: Antifungal activity against Trichoderma viride MTCC 1107 at 20 uM/ml after 48 hrs by paper disc diffusion method; assay type: functional
[18] = test system: Salmonella typhimurium; assay: Antibacterial activity against Salmonella typhimurium ATCC 23564 at 80 uM/ml after 24 hrs by kirby-bauer method; assay type: functional, Salmonella enterica subsp. enterica serovar Typhimurium; conditions: Salmonella enterica, ATCC 23564, 24 h; read-out: IZ
[19] = test system: Salmonella typhimurium; assay: Antibacterial activity against Salmonella typhimurium ATCC 23564 at 40 uM/ml after 24 hrs by kirby-bauer method; assay type: functional, Salmonella enterica subsp. enterica serovar Typhimurium
[20] = test system: Escherichia coli; assay: Antibacterial activity against Escherichia coli ATCC 35218 at 20 uM/ml after 24 hrs by kirby-bauer method; assay type: functional
[21] = test system: Burkholderia pseudomallei; assay: Antibacterial activity against Burkholderia pseudomallei NTCC 10274 at 160 uM/ml after 24 hrs by kirby-bauer method; assay type: functional; conditions: NTCC 10274, 24 h, read-out: IZ
[22] = test system: Salmonella typhimurium; assay: Antibacterial activity against Salmonella typhimurium ATCC 23564 at 20 uM/ml after 24 hrs by kirby-bauer method; assay type: functional; conditions: Salmonella enterica subsp. enterica serovar Typhimurium
[23] = test system: Curvularia lunata; assay: Antifungal activity against Curvularia lunata MTCC 581 at 20 uM/ml after 48 hrs by paper disc diffusion method; assay type: functional
[24] = test system: Escherichia coli; assay: Antibacterial activity against Escherichia coli ATCC 35218 at 80 uM/ml after 24 hrs by kirby-bauer method; assay type: functional; conditions: ATCC 35218, 24 h, read-out: IZ
[25] = test system: Pseudomonas aeruginosa; assay: Antibacterial activity against Pseudomonas aeruginosa ATCC 15499 at 80 uM/ml after 24 hrs by kirby-bauer method; assay type: functional; conditions: ATCC 15499, 24 h, read-out: IZ
[26] = test system: Pseudomonas aeruginosa; assay: Antibacterial activity against Pseudomonas aeruginosa ATCC 15499 at 160 uM/ml after 24 hrs by kirby-bauer method; assay type: functional; conditions: ATCC 15499, 24 h, read-out: IZ
[27] = test system: Trichoderma viride; assay: Antifungal activity against Trichoderma viride MTCC 1107 at 160 uM/ml after 48 hrs by paper disc diffusion method; assay type: functional; conditions: MTCC 1107, 48 h, read-out: IZ
[28] = test system: Escherichia coli; assay: Antibacterial activity against Escherichia coli ATCC 35218 at 160 uM/ml after 24 hrs by kirby-bauer method; assay type: functional; conditions: ATCC 35218, 24 h, read-out: IZ
[29] = test system: QG-56; assay: Cytotoxicity against human QG56 cells after 48 hrs by MTT assay; assay type: functional, cell-based
[30] = test system: Pseudomonas aeruginosa; assay: Antibacterial activity against Pseudomonas aeruginosa ATCC 15499 at 40 uM/ml after 24 hrs by kirby-bauer method; assay type: functional
[31] = test system: Burkholderia pseudomallei; assay: Antibacterial activity against Burkholderia pseudomallei NTCC 10274 at 80 uM/ml after 24 hrs by kirby-bauer method; assay type: functional; conditions: NTCC 10274, 24 h, read-out: IZ
[32] = test system: Aspergillus flavus; assay: Antifungal activity against Aspergillus flavus MTCC 1021 after 48 hrs by poison food method MTCC 1021; assay type: functional
[33] = test system: Staphylococcus aureus; assay: Antibacterial activity against Staphylococcus aureus ATCC 11632 at 80 uM/ml after 24 hrs by kirby-bauer method; assay type: functional; conditions: ATCC 11632, 24 h, read-out: IZ
[34] = test system: Aspergillus flavus; assay: Antifungal activity against Aspergillus flavus MTCC 1021 at 20 uM/ml after 48 hrs by paper disc diffusion method; assay type: functional
[35] = test system: Aspergillus flavus; assay: Antifungal activity against Aspergillus flavus MTCC 1021 at 80 uM/ml after 48 hrs by paper disc diffusion method; assay type: functional; conditions: MTCC 1021, 48 h, read-out: IZ
[36] = test system: Aspergillus niger; assay: Antifungal activity against Aspergillus niger MTCC 1108 at 20 uM/ml after 48 hrs by paper disc diffusion method; assay type: functional
[37] = test system: Staphylococcus aureus; assay: Antibacterial activity against Staphylococcus aureus ATCC 11632 at 40 uM/ml after 24 hrs by kirby-bauer method; assay type: functional; conditions: ATCC 11632, 24 h, read-out: IZ
[38] = test system: Aspergillus niger; assay: Antifungal activity against Aspergillus niger MTCC 1108 at 40 uM/ml after 48 hrs by paper disc diffusion method; assay type: functional
[39] = test system: Staphylococcus aureus; assay: Antibacterial activity against Staphylococcus aureus ATCC 11632 at 20 uM/ml after 24 hrs by kirby-bauer method; assay type: functional; conditions: ATCC 11632, 24 h, read-out: IZ
[40] = test system: Aspergillus flavus; assay: Antifungal activity against Aspergillus flavus MTCC 1021 at 40 uM/ml after 48 hrs by paper disc diffusion method; assay type: functional
[41] = test system: Aspergillus niger; assay: Antifungal activity against Aspergillus niger MTCC 1108 at 80 uM/ml after 48 hrs by paper disc diffusion method; assay type: functional

COc1cc(/C=C/C(=O)CC(=O)/C=C/c2ccc(O)c(OC)c2)ccc1O [CURCUMIN]
inhibition zone (IZ) [1]: inactive | IC50 [2]: 50 uM/ml | zone of inhibition at 160 µM [3]: 11 mm | inhibition zone (IZ) [4]: inactive | zone of inhibition at 160 µM [5]: 12 mm | inhibition zone (IZ) [6]: inactive | inhibition zone (IZ) [7]: inactive | inhibition zone (IZ) [8]: inactive | MIC [9]: inactive | inhibition zone (IZ) [10]: inactive | inhibition zone (IZ) [11]: inactive | inhibition zone (IZ) [12]: inactive | inhibition zone (IZ) [13]: inactive | zone of inhibition at 80 µM [14]: 9 mm | inhibition zone (IZ) [15]: inactive | IC50 [16]: 50 uM/ml | inhibition zone (IZ) [17]: inactive | zone of inhibition at 80 µM [18]: 10 mm | zone of inhibition at 40 µM ([19]; Salmonella enterica, ATCC 23564, 24 h, read-out: IZ): 9 mm | inhibition zone (IZ) [20]: inactive | zone of inhibition at 160 µM [21]: 9 mm | inhibition zone (IZ) [22]: inactive | inhibition zone (IZ) [23]: inactive | zone of inhibition at 80 µM [24]: 8 mm | zone of inhibition at 80 µM [25]: 9 mm | zone of inhibition at 160 µM [26]: 11 mm | zone of inhibition at 160 µM [27]: 9 mm | zone of inhibition at 160 µM [28]: 10 mm | IC50 [29]: 100 uM/ml | inhibition zone (IZ) [30]: inactive | zone of inhibition at 80 µM [31]: 8 mm | MIC [32]: inactive

COc1cc(/C=C/C(=O)C2=C(/C=C/c3ccc(O)c(OC)c3)NC(=O)NC2c2ccccc2)ccc1O (configuration not stated)
zone of inhibition at 160 µM ([1]; MTCC 1108, 48 h, read-out: IZ): 9 mm | IC50 [2]: 25 uM/ml | zone of inhibition at 160 µM [3]: 18 mm | inhibition zone (IZ) [4]: inactive | zone of inhibition at 160 µM [5]: 11 mm | zone of inhibition at 160 µM ([6]; MTCC 1021, 48 h, read-out: IZ): 11 mm | zone of inhibition at 80 µM [33]: 19 mm | zone of inhibition at 160 µM ([7]; ATCC 11632, 24 h, read-out: IZ): 22 mm | zone of inhibition at 80 µM [8]: 11 mm | inhibition zone (IZ) [34]: inactive | zone of inhibition [10]: 9 mm | zone of inhibition at 40 µM [11]: 9 mm | zone of inhibition at 20 µM ([12]; NTCC 10274, 24 h, read-out: IZ): 14 mm | inhibition zone (IZ) [13]: inactive | zone of inhibition at 80 µM [14]: 12 mm | zone of inhibition at 80 µM [35]: 9 mm | zone of inhibition at 40 µM ([15]; NTCC 10274, 24 h, read-out: IZ): 16 mm | IC50 [16]: 50 uM/ml | inhibition zone (IZ) [17]: inactive | inhibition zone (IZ) [36]: inactive | zone of inhibition at 80 µM [18]: 8 mm | inhibition zone (IZ) ([19]; Salmonella enterica subsp. enterica serovar Typhimurium): inactive | inhibition zone (IZ) [20]: inactive | zone of inhibition at 160 µM [21]: 19 mm | inhibition zone (IZ) [22]: inactive | inhibition zone (IZ) [23]: inactive | zone of inhibition at 80 µM [24]: 9 mm | zone of inhibition at 80 µM [25]: 12 mm | zone of inhibition at 40 µM [37]: 17 mm | zone of inhibition at 160 µM [26]: 14 mm | zone of inhibition at 160 µM [27]: 14 mm | inhibition zone (IZ) [38]: inactive | zone of inhibition at 160 µM [28]: 17 mm | IC50 [29]: 50 uM/ml | zone of inhibition at 40 µM ([30]; ATCC 15499, 24 h, read-out: IZ): 9 mm | zone of inhibition at 20 µM [39]: 14 mm | inhibition zone (IZ) [40]: inactive | inhibition zone (IZ) [41]: inactive | zone of inhibition at 80 µM [31]: 17 mm

OC(Cn1cncn1)(Cn1cncn1)c1ccc(F)cc1F [FLUCONAZOLE]
inhibition zone (IZ) [1]: inactive | zone of inhibition at 160 µM [3]: 31 mm | inhibition zone (IZ) [6]: inactive | zone of inhibition at 80 µM [8]: 29 mm | MIC [9]: inactive | zone of inhibition [10]: 24 mm | zone of inhibition at 40 µM [11]: 27 mm | zone of inhibition at 80 µM [14]: 28 mm | zone of inhibition at 20 µM ([17]; MTCC 1107, 48 h, read-out: IZ): 21 mm | zone of inhibition at 20 µM ([23]; MTCC 581, 48 h, read-out: IZ): 24 mm | zone of inhibition at 160 µM [27]: 32 mm
